Data published in US10144732B2 (BIOGEN MA INC., priority 2014, dated 2018).
Where a name gives a salt, the structure may show the parent alone.

Each compound was assayed against T1, Human ATX protein (Homo sapiens, UniProt Q13822) (assay: ATX biochemical assay (FRET, FS-3 substrate)). Details: FRET assay, FS-3 2 μM, ATX 1.0 μg/mL, 30 minutes preincubation, 2 hours reaction at room temperature; read-out: IC50.
T1 construct: made in house
How it was run: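 In-house human ATX (1.0 μg/mL final) was preincubated with compound for 30 min at room temperature in Tris buffer pH 7.4 with 1 mg/mL fatty acid free-BSA. FS-3 substrate (2 μM final) was then hydrolysed for 2 hours at room temperature, protected from light, and read as fluorescence at ex 485/em 538 nm.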

Row | Structure (SMILES) | IC50
1 | CCC1CC(CC(=O)N2CCc3c(C(F)(F)F)nn(Cc4ccc(F)cc4)c3C2)CCN1 (stereo not drawn) [Example 9-11, 2-(2-Ethylpiperidin-4-yl)-1-(1-(4-fluorobenzyl)-3-(trifluoromethyl)-4,5-dihydro-1H-pyrazolo[3,4-c]pyridin-6(7H)-yl)ethanone TFA salt] | ≤ 100 nM
2 | CCCC1CC(CC(=O)N2CCc3c(C(F)(F)F)nn(Cc4ccc(F)cc4)c3C2)CCN1 (stereo not drawn) [Example 9-12, 1-(1-(4-Fluorobenzyl)-3-(trifluoromethyl)-4,5-dihydro-1H-pyrazolo[3,4-c]pyridin-6(7H)-yl)-2-(2-propylpiperidin-4-yl)ethanone acid TFA salt] | ≤ 100 nM
3 | O=C(CC1CCNC(C(F)(F)F)C1)N1CCc2c(C(F)(F)F)nn(Cc3ccc(F)cc3)c2C1 (stereo not drawn) [Example 9-13, 1-(1-(4-Fluorobenzyl)-3-(trifluoromethyl)-4,5-dihydro-1H-pyrazolo[3,4-c]pyridin-6(7H)-yl)-2-(2-(trifluoromethyl)piperidin-4-yl)ethanone TFA salt] | ≤ 100 nM
4 | O=C(O)[C@H]1CC(CC(=O)N2CCc3c(C(F)(F)F)nn(Cc4ccc(Cl)cc4F)c3C2)CN1 (stereo partly drawn) [Example 9-14, (2R)-4-(2-(1-(4-Chloro-2-fluorobenzyl)-3-(trifluoromethyl)-4,5-dihydro-1H-pyrazolo[3,4-c]pyridin-6(7H)-yl)-2-oxoethyl)pyrrolidine-2-carboxylic acid TFA salt] | ≤ 100 nM
5 | O=C(CC1CNCCO1)N1CCc2c(C(F)(F)F)nn(Cc3ccc(Cl)cc3F)c2C1 (stereo not drawn) [Example 9-15, 1-(1-(4-Chloro-2-fluorobenzyl)-3-(trifluoromethyl)-4,5-dihydro-1H-pyrazolo[3,4-c]pyridin-6(7H)-yl)-2-(morpholin-2-yl)ethanone TFA salt] | ≤ 100 nM
6 | O=C(CC1CNCCO1)N1CCc2c(C(F)(F)F)nn(Cc3ccc(F)cc3)c2C1 (stereo not drawn) [Example 9-16, 1-(1-(4-Fluorobenzyl)-3-(trifluoromethyl)-4,5-dihydro-1H-pyrazolo[3,4-c]pyridin-6(7H)-yl)-2-(morpholin-2-yl)ethanone TFA salt] | ≤ 100 nM
7 | N[C@H]1CC[C@@H](CC(=O)N2CCc3c(C(F)(F)F)nn(Cc4ccc(Cl)cc4F)c3C2)CC1 [Example 9-17, 2-(cis-4-Aminocyclohexyl)-1-(1-(4-chloro-2-fluorobenzyl)-3-(trifluoromethyl)-4,5-dihydro-1H-pyrazolo[3,4-c]pyridin-6(7H)-yl)ethanone TFA salt] | ≤ 100 nM
8 | N[C@H]1CC[C@@H](CC(=O)N2CCc3c(C(F)(F)F)nn(Cc4ccc(F)cc4)c3C2)CC1 [Example 9-18, 2-(cis-4-Aminocyclohexyl)-1-(1-(4-fluorobenzyl)-3-(trifluoromethyl)-4,5-dihydro-1H-pyrazolo[3,4-c]pyridin-6(7H)-yl)ethanone TFA salt] | ≤ 100 nM
9 | N[C@H]1CC[C@H](CC(=O)N2CCc3c(C(F)(F)F)nn(Cc4ccc(Cl)cc4F)c3C2)CC1 [Example 9-19, 2-(trans-4-aminocyclohexyl)-1-(1-(4-chloro-2-fluorobenzyl)-3-(trifluoromethyl)-4,5-dihydro-1H-pyrazolo[3,4-c]pyridin-6(7H)-yl)ethanone TFA salt] | ≤ 100 nM
10 | N[C@H]1CC[C@H](CC(=O)N2CCc3c(C(F)(F)F)nn(Cc4ccc(F)cc4)c3C2)CC1 [Example 9-20, 2-(trans-4-Aminocyclohexyl)-1-(1-(4-fluorobenzyl)-3-(trifluoromethyl)-4,5-dihydro-1H-pyrazolo[3,4-c]pyridin-6(7H)-yl)ethanone TFA salt] | ≤ 100 nM
11 | O=C(CC1CC2CNCC2C1)N1CCc2c(C(F)(F)F)nn(Cc3ccc(Cl)cc3F)c2C1 (stereo not drawn) [Example 9-21, 1-(1-(4-Chloro-2-fluorobenzyl)-3-(trifluoromethyl)-4,5-dihydro-1H-pyrazolo[3,4-c]pyridin-6(7H)-yl)-2-(octahydrocyclopenta[c]pyrrol-5-yl)ethanone TFA salt] | ≤ 100 nM
12 | CNC12CCC(C(=O)N3CCc4c(C(F)(F)F)nn(Cc5ccc(F)cc5)c4C3)(CC1)CC2 [Example 9-22, (1-(4-Fluorobenzyl)-3-(trifluoromethyl)-4,5-dihydro-1H-pyrazolo[3,4-c]pyridin-6(7H)-yl)(4-(methylamino)bicyclo[2.2.2]octan-1-yl)methanone TFA salt] | 250 to 500 nM
13 | O=C(CC1CCNC1)N1CCc2c(C(F)(F)F)nn(Cc3ccc(F)cc3)c2C1 (stereo not drawn) [Example 9-23, 1-(1-(4-Fluorobenzyl)-3-(trifluoromethyl)-4,5-dihydro-1H-pyrazolo[3,4-c]pyridin-6(7H)-yl)-2-(pyrrolidin-3-yl)ethanone hydrochloride] | ≤ 100 nM

Second part, the compound after the results:

Row | IC50 | Structure (SMILES)
14 | ≤ 100 nM | CC1CC(CC(=O)N2CCc3c(C(F)(F)F)nn(Cc4ccc(Cl)cc4F)c3C2)CCN1C (stereo not drawn) [Example 10-2, 1-(1-(4-Chloro-2-fluorobenzyl)-3-(trifluoromethyl)-4,5-dihydro-1H-pyrazolo[3,4-c]pyridin-6(7H)-yl)-2-(1,2-dimethylpiperidin-4-yl)ethanone TFA salt]
15 | ≤ 100 nM | CN1CCC(CC(=O)N2CCc3c(C(F)(F)F)nn(Cc4ccc(Cl)cc4F)c3C2)CC1(C)C (stereo not drawn) [Example 10-3, 1-(1-(4-Chloro-2-fluorobenzyl)-3-(trifluoromethyl)-4,5-dihydro-1H-pyrazolo[3,4-c]pyridin-6(7H)-yl)-2-(1,2,2-trimethylpiperidin-4-yl)ethanone TFA salt]
16 | ≤ 100 nM | CN1CCC(CC(=O)N2CCc3c(C(F)(F)F)nn(Cc4ccc(Cl)cc4F)c3C2)CC1C(F)(F)F (stereo not drawn) [Example 10-4, 1-(1-(4-Chloro-2-fluorobenzyl)-3-(trifluoromethyl)-4,5-dihydro-1H-pyrazolo[3,4-c]pyridin-6(7H)-yl)-2-(1-methyl-2-(trifluoromethyl)piperidin-4-yl)ethanone TFA salt]
17 | 100 to 250 nM | CN1CCC(CC(=O)N2CCc3c(C(F)(F)F)nn(Cc4ccc(F)cc4)c3C2)C1 (stereo not drawn) [Example 10-5, 1-(1-(4-Fluorobenzyl)-3-(trifluoromethyl)-4,5-dihydro-1H-pyrazolo[3,4-c]pyridin-6(7H)-yl)-2-(1-methylpyrrolidin-3-yl)ethanone]
18 | ≤ 100 nM | CC(C)N1CCC(CC(=O)N2CCc3c(C(F)(F)F)nn(Cc4ccc(F)cc4)c3C2)C1 (stereo not drawn) [Example 10-6, 1-(1-(4-Fluorobenzyl)-3-(trifluoromethyl)-4,5-dihydro-1H-pyrazolo[3,4-c]pyridin-6(7H)-yl)-2-(1-isopropylpyrrolidin-3-yl)ethanone]
19 | ≤ 100 nM | CCC1CC(CC(=O)N2CCc3c(C(F)(F)F)nn(Cc4ccc(F)cc4)c3C2)CCN1C (stereo not drawn) [Example 10-7, 2-(2-Ethyl-1-methylpiperidin-4-yl)-1-(1-(4-fluorobenzyl)-3-(trifluoromethyl)-4,5-dihydro-1H-pyrazolo[3,4-c]pyridin-6(7H)-yl)ethanone TFA salt]
20 | ≤ 100 nM | CCCC1CC(CC(=O)N2CCc3c(C(F)(F)F)nn(Cc4ccc(F)cc4)c3C2)CCN1C (stereo not drawn) [Example 10-8, 1-(1-(4-Fluorobenzyl)-3-(trifluoromethyl)-4,5-dihydro-1H-pyrazolo[3,4-c]pyridin-6(7H)-yl)-2-(1-methyl-2-propylpiperidin-4-yl)ethanone acid TFA salt]
21 | 250 to 500 nM | CN(C)C12CCC(C(=O)N3CCc4c(C(F)(F)F)nn(Cc5ccc(F)cc5)c4C3)(CC1)CC2 [Example 10-9, (4-(dimethylamino)bicyclo[2.2.2]octan-1-yl)(1-(4-fluorobenzyl)-3-(trifluoromethyl)-4,5-dihydro-1H-pyrazolo[3,4-c]pyridin-6(7H)-yl)methanone trifluoroacetate salt TFA salt]
22 | ≤ 100 nM | CN1CC(CC(=O)N2CCc3c(C(F)(F)F)nn(Cc4ccc(Cl)cc4F)c3C2)C[C@@H]1C(=O)O (stereo partly drawn) [Example 10-10, (2R)-4-(2-(1-(4-chloro-2-fluorobenzyl)-3-(trifluoromethyl)-4,5-dihydro-1H-pyrazolo[3,4-c]pyridin-6(7H)-yl)-2-oxoethyl)-1-methylpyrrolidine-2-carboxylic acid TFA salt]
23 | ≤ 100 nM | CN1CC(CC(=O)N2CCc3c(C(F)(F)F)nn(Cc4ccc(Cl)cc4F)c3C2)C[C@H]1C(=O)O (stereo partly drawn) [Example 10-11, (2S)-4-(2-(1-(4-Chloro-2-fluorobenzyl)-3-(trifluoromethyl)-4,5-dihydro-1H-pyrazolo[3,4-c]pyridin-6(7H)-yl)-2-oxoethyl)-1-methylpyrrolidine-2-carboxylic acid TFA salt]
24 | ≤ 100 nM | CC(C)N1CC(CC(=O)N2CCc3c(C(F)(F)F)nn(Cc4ccc(Cl)cc4F)c3C2)C[C@H]1C(=O)O (stereo partly drawn) [Example 10-12, (2S)-4-(2-(1-(4-Chloro-2-fluorobenzyl)-3-(trifluoromethyl)-4,5-dihydro-1H-pyrazolo[3,4-c]pyridin-6(7H)-yl)-2-oxoethyl)-1-isopropylpyrrolidine-2-carboxylic acid TFA salt]
25 | ≤ 100 nM | CN1CCCC(CC(=O)N2CCc3c(C(F)(F)F)nn(Cc4ccc(F)cc4)c3C2)C1 (stereo not drawn) [Example 11-1, 1-(1-(4-Fluorobenzyl)-3-(trifluoromethyl)-4,5-dihydro-1H-pyrazolo[3,4-c]pyridin-6(7H)-yl)-2-(1-methylpiperidin-3-yl)ethanone formate]
26 | ≤ 100 nM | CC(C)N1CCC(CC(=O)N2CCc3c(C(F)(F)F)nn(Cc4ccc(Cl)cc4F)c3C2)CC1 [Example 11-2, 1-(1-(4-Chloro-2-fluorobenzyl)-3-(trifluoromethyl)-4,5-dihydro-1H-pyrazolo[3,4-c]pyridin-6(7H)-yl)-2-(1-isopropylpiperidin-4-yl)ethanone HCl salt]

Same assay, conditions: IC50, FRET assay, FS-3 2 μM, ATX 1.0 μg/mL, 30 minutes preincubation, 2 hours reaction at room temperature

Row | Structure (SMILES) | IC50
27 | CN1C2CCC1CC(CC(=O)N1CCc3c(C(F)(F)F)nn(Cc4ccc(Cl)cc4F)c3C1)C2 (stereo not drawn) [Example 10-1, 1-(1-(4-Chloro-2-fluorobenzyl)-3-(trifluoromethyl)-4,5-dihydro-1H-pyrazolo[3,4-c]pyridin-6(7H)-yl)-2-(8-methyl-8-aza-bicyclo[3.2.1]octan-3-yl)ethanone TFA salt] | ≤ 100 nM
